Measured values as given in patent US9464082B2, “Aryl and arylalkyl substituted pyrazolyl and pyrimidinyl tricyclic enones as antioxidant inflammation modulators” (AbbVie Inc., priority 2014, dated 2016).

Tested on: IFNγ-Induced NO Production
Test: Nitric Oxide Suppression Assay (Suppression of IFNγ-Induced NO Production)
Type: cell-based
Details: RAW264.7; RAW 264.7 mouse macrophage cells; 2 hour pre-treatment with compound (3 μM to 0.3 nM, 10 point curve); 20 ng/mL interferon gamma, ~18 hour; Griess detection; n=2-3 in duplicates
Summary of the method: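 Mouse RAW 264.7 macrophages pre-treated 2 h at 37 °C with compound (3 μM to 0.3 nM, 10 points; DMSO ≤1%), then stimulated with 20 ng/mL interferon gamma for ~18 h. Supernatant nitrite measured by Griess reaction, absorbance 520–550 nm. IC50 from curve fit of signal normalised to IFNγ alone, mean n=2-3 in duplicate.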

SMILES | IC50 [nM]
C[C@@H]1C(=O)C(C#N)=C[C@]2(c3cccc(O)c3)c3ncncc3CC[C@@H]12 [Example 137, (6aS,7S,10aR)-10a-(3-hydroxyphenyl)-7-methyl-8-oxo-5,6,6a,7,8,10a-hexahydrobenzo[h]quinazoline-9-carbonitrile] | 8.93
C[C@@H]1C(=O)C(C#N)=C[C@]2(c3ccccc3)c3nc(-c4ccc(C(=O)N(C)C)cc4)ncc3CC[C@@H]12 [Example 138, 4-[(6aS,7S,10aR)-9-cyano-7-methyl-8-oxo-10a-phenyl-5,6,6a,7,8,10a-hexahydrobenzo[h]quinazolin-2-yl]-N,N-dimethylbenzamide] | 5.26
Cc1nc(-c2ccc(-c3cncn3C)cc2)c2c(n1)[C@@]1(c3ccccc3)C=C(C#N)C(=O)[C@@H](C)[C@@H]1CC2 [Example 139, (6aS,7S,10aR)-2,7-dimethyl-4-[4-(1-methyl-1H-imidazol-5-yl)phenyl]-8-oxo-10a-phenyl-5,6,6a,7,8,10a-hexahydrobenzo[h]quinazoline-9-carbonitrile] | 19
C[C@@H]1C(=O)C(C#N)=C[C@]2(c3ccccc3)c3n[nH]c(-c4ccnnc4)c3CC[C@@H]12 [Example 140, (5aS,6S,9aR)-6-methyl-7-oxo-9a-phenyl-3-(pyridazin-4-yl)-4,5,5a,6,7,9a-hexahydro-2H-benzo[g]indazole-8-carbonitrile] | 8.45
C[C@@H]1C(=O)C(C#N)=C[C@]2(c3ccccc3)c3n[nH]c(-c4cnn(CC(=O)O)c4)c3CC[C@@H]12 [Example 141, {4-[(5aS,6S,9aR)-8-cyano-6-methyl-7-oxo-9a-phenyl-4,5,5a,6,7,9a-hexahydro-2H-benzo[g]indazol-3-yl]-1H-pyrazol-1-yl}acetic acid] | 4
COC(=O)c1cccc([C@]23C=C(C(N)=O)C(=O)[C@@H](C)[C@@H]2CCc2cncnc23)c1 [Example 142, methyl 3-[(6aS,7S,10aR)-9-carbamoyl-7-methyl-8-oxo-6,6a,7,8-tetrahydrobenzo[h]quinazolin-10a(5H)-yl]benzoate] | 2280
C[C@@H]1C(=O)C(C#N)=C[C@]2(c3ccccc3)c3nn(C)c(-c4ccc(-c5ccncc5)cc4)c3CC[C@@H]12 [Example 143, (5aS,6S,9aR)-2,6-dimethyl-7-oxo-9a-phenyl-3-[4-(pyridin-4-yl)phenyl]-4,5,5a,6,7,9a-hexahydro-2H-benzo[g]indazole-8-carbonitrile] | 69.3
C[C@@H]1C(=O)C(C#N)=C[C@]2(c3ccccc3)c3nn(C)c(-c4ccc(-c5cncnc5)cc4)c3CC[C@@H]12 [Example 144, (5aS,6S,9aR)-2,6-dimethyl-7-oxo-9a-phenyl-3-[4-(pyrimidin-5-yl)phenyl]-4,5,5a,6,7,9a-hexahydro-2H-benzo[g]indazole-8-carbonitrile] | 18.1
Cc1nc(-c2ccc(-c3cncnc3)cc2)c2c(n1)[C@@]1(c3ccccc3)C=C(C(N)=O)C(=O)[C@@H](C)[C@@H]1CC2 [Example 145, (6aS,7S,10aR)-2,7-dimethyl-8-oxo-10a-phenyl-4-[4-(pyrimidin-5-yl)phenyl]-5,6,6a,7,8,10a-hexahydrobenzo[h]quinazoline-9-carboxamide] | > 1000
Cc1nc(-c2ccc(N3CCOCC3)c(Br)c2)c2c(n1)[C@@]1(c3ccccc3)C=C(C#N)C(=O)[C@@H](C)[C@@H]1CC2 [Example 146, (6aS,7S,10aR)-4-[3-bromo-4-(morpholin-4-yl)phenyl]-2,7-dimethyl-8-oxo-10a-phenyl-5,6,6a,7,8,10a-hexahydrobenzo[h]quinazoline-9-carbonitrile] | 52.2
Cc1nc(Nc2cccnc2)c2c(n1)[C@@]1(c3ccccc3)C=C(C#N)C(=O)[C@@H](C)[C@@H]1CC2 [Example 147, (6aS,7S,10aR)-2,7-dimethyl-8-oxo-10a-phenyl-4-(pyridin-3-ylamino)-5,6,6a,7,8,10a-hexahydrobenzo[h]quinazoline-9-carbonitrile] | 48
C[C@@H]1C(=O)C(C#N)=C[C@]2(c3ccccc3)c3nn(C)c(-c4cccc(Br)c4)c3CC[C@@H]12 [Example 148, (5aS,6S,9aR)-3-(3-bromophenyl)-2,6-dimethyl-7-oxo-9a-phenyl-4,5,5a,6,7,9a-hexahydro-2H-benzo[g]indazole-8-carbonitrile] | 31.5
C[C@@H]1C(=O)C(C#N)=C[C@]2(c3ccccc3)c3nn(C)c(-c4cccc(-c5ccc(N)cc5)c4)c3CC[C@@H]12 [Example 149, (5aS,6S,9aR)-3-(4′-aminobiphenyl-3-yl)-2,6-dimethyl-7-oxo-9a-phenyl-4,5,5a,6,7,9a-hexahydro-2H-benzo[g]indazole-8-carbonitrile] | 7.32
C[C@@H]1C(=O)C(C#N)=C[C@]2(c3ccccc3)c3nn(C)c(-c4cccc(-c5cccc(NS(C)(=O)=O)c5)c4)c3CC[C@@H]12 [Example 150, N-{3′-[(5aS,6S,9aR)-8-cyano-2,6-dimethyl-7-oxo-9a-phenyl-4,5,5a,6,7,9a-hexahydro-2H-benzo[g]indazol-3-yl]biphenyl-3-yl}methanesulfonamide] | 2.26
C[C@@H]1C(=O)C(C#N)=C[C@]2(c3ccccc3)c3nn(C)c(-c4cccc(-c5ccnnc5)c4)c3CC[C@@H]12 [Example 151, (5aS,6S,9aR)-2,6-dimethyl-7-oxo-9a-phenyl-3-[3-(pyridazin-4-yl)phenyl]-4,5,5a,6,7,9a-hexahydro-2H-benzo[g]indazole-8-carbonitrile] | 6.81
C[C@@H]1C(=O)C(C#N)=C[C@]2(c3ccccc3)c3nn(C)c(-c4cccc(-c5ccc(N(S(C)(=O)=O)S(C)(=O)=O)cc5)c4)c3CC[C@@H]12 [Example 152, N-{3′-[(5aS,6S,9aR)-8-cyano-2,6-dimethyl-7-oxo-9a-phenyl-4,5,5a,6,7,9a-hexahydro-2H-benzo[g]indazol-3-yl]biphenyl-4-yl}-N-(methylsulfonyl)methanesulfonamide] | 11.5
COc1ncc(-c2cccc(-c3c4c(nn3C)[C@@]3(c5ccccc5)C=C(C#N)C(=O)[C@@H](C)[C@@H]3CC4)c2)cn1 [Example 153, (5aS,6S,9aR)-3-[3-(2-methoxypyrimidin-5-yl)phenyl]-2,6-dimethyl-7-oxo-9a-phenyl-4,5,5a,6,7,9a-hexahydro-2H-benzo[g]indazole-8-carbonitrile] | 6.46
COC(=O)CCc1cccc(-c2nc(C)nc3c2CC[C@H]2[C@H](C)C(=O)C(C#N)=C[C@]32c2ccccc2)c1 [Example 154, methyl 3-{3-[(6aS,7S,10aR)-9-cyano-2,7-dimethyl-8-oxo-10a-phenyl-5,6,6a,7,8,10a-hexahydrobenzo[h]quinazolin-4-yl]phenyl}propanoate] | 47.5
Cc1nc(-c2cccc(CCC(=O)O)c2)c2c(n1)[C@@]1(c3ccccc3)C=C(C#N)C(=O)[C@@H](C)[C@@H]1CC2 [Example 155, 3-{3-[(6aS,7S,10aR)-9-cyano-2,7-dimethyl-8-oxo-10a-phenyl-5,6,6a,7,8,10a-hexahydrobenzo[h]quinazolin-4-yl]phenyl}propanoic acid] | 107
Cc1nc(-c2cccc(CCC(N)=O)c2)c2c(n1)[C@@]1(c3ccccc3)C=C(C#N)C(=O)[C@@H](C)[C@@H]1CC2 [Example 156, 3-{3-[(6aS,7S,10aR)-9-cyano-2,7-dimethyl-8-oxo-10a-phenyl-5,6,6a,7,8,10a-hexahydrobenzo[h]quinazolin-4-yl]phenyl}propanamide] | 3.57
C[C@@H]1C(=O)C(C#N)=C[C@]2(c3ccccc3)c3n[nH]c(-c4cnn(-c5ccc(C#N)cc5)c4)c3CC[C@@H]12 [Example 157, (5aS,6S,9aR)-3-[1-(4-cyanophenyl)-1H-pyrazol-4-yl]-6-methyl-7-oxo-9a-phenyl-4,5,5a,6,7,9a-hexahydro-2H-benzo[g]indazole-8-carbonitrile] | 44.4
C[C@@H]1C(=O)C(C#N)=C[C@]2(c3ccccc3)c3n[nH]c(-c4cnn(-c5cccnc5)c4)c3CC[C@@H]12 [Example 158, (5aS,6S,9aR)-6-methyl-7-oxo-9a-phenyl-3-[1-(pyridin-3-yl)-1H-pyrazol-4-yl]-4,5,5a,6,7,9a-hexahydro-2H-benzo[g]indazole-8-carbonitrile] | 33
C[C@@H]1C(=O)C(C#N)=C[C@]2(c3ccccc3)c3n[nH]c(-c4cnn(-c5ccncc5)c4)c3CC[C@@H]12 [Example 159, (5aS,6S,9aR)-6-methyl-7-oxo-9a-phenyl-3-[1-(pyridin-4-yl)-1H-pyrazol-4-yl]-4,5,5a,6,7,9a-hexahydro-2H-benzo[g]indazole-8-carbonitrile] | 33.8
C[C@@H]1C(=O)C(C#N)=C[C@]2(c3ccccc3)c3nn(C)c(-c4cccc(-c5cccc(C(=O)O)c5)c4)c3CC[C@@H]12 [Example 166, 3′-[(5aS,6S,9aR)-8-cyano-2,6-dimethyl-7-oxo-9a-phenyl-4,5,5a,6,7,9a-hexahydro-2H-benzo[g]indazol-3-yl]biphenyl-3-carboxylic acid] | 65.6
C[C@@H]1C(=O)C(C#N)=C[C@]2(c3ccccc3)c3nn(C)c(-c4cccc(-c5cn[nH]c5)c4)c3CC[C@@H]12 [Example 167, (5aS,6S,9aR)-2,6-dimethyl-7-oxo-9a-phenyl-3-[3-(1H-pyrazol-4-yl)phenyl]-4,5,5a,6,7,9a-hexahydro-2H-benzo[g]indazole-8-carbonitrile] | 3.27
C[C@@H]1C(=O)C(C#N)=C[C@]2(c3ccccc3)c3nn(C)c(-c4cccc(-c5ccc(CNS(C)(=O)=O)cc5)c4)c3CC[C@@H]12 [Example 168, N-({3′-[(5aS,6S,9aR)-8-cyano-2,6-dimethyl-7-oxo-9a-phenyl-4,5,5a,6,7,9a-hexahydro-2H-benzo[g]indazol-3-yl]biphenyl-4-yl}methyl)methanesulfonamide] | 12.3
C[C@@H]1C(=O)C(C#N)=C[C@]2(c3ccccc3)c3nn(C)c(-c4cccc(-c5ccc(NS(C)(=O)=O)cc5)c4)c3CC[C@@H]12 [Example 169, N-{3′-[(5aS,6S,9aR)-8-cyano-2,6-dimethyl-7-oxo-9a-phenyl-4,5,5a,6,7,9a-hexahydro-2H-benzo[g]indazol-3-yl]biphenyl-4-yl}methanesulfonamide] | 8.77
